In patent US20070244190A1, “Neobritannilactone B and acetyl neobritannilactone B” (priority 2006, published 2007):

Key:
AGS cells [1] = assay: DNA fragmentation by agarose gel electrophoresis; type: cell-based, human; settings: 15 μM, 24 h, FIG. 4
Procedure: DNA Extraction and Electrophoresis Analysis. The AGS human cancer cells were harvested, washed with phosphate-buffered saline (PBS), and then lysed with digestion buffer containing 0.5% sarkosyl, 0.5 mg/mL proteinase K, 50 mM tris(hydroxy methyl)aminomethan (pH 8.0), and 10 mM EDTA at 56° C. overnight and treated with RNase A (0.5 μg/mL) for 3 h at 56° C. The DNA was extracted by phenol/chloroform/isoamyl (25:24:1) before loading and was analyzed by 2% agarose gel electrophoresis. The agarose gels were run at 50 V for 120 min in Tris-borate/EDTA electrophoresis buffer (TBE). Approximately 20 μg of DNA was loaded in each well and visualized under UV light, and photographed.
(§1) Physiological cell death is characterized by apoptotic morphology, including chromatin condensation, membrane blebbing, internucleosome degradation of DNA, and apoptotic body formation. Nucleosomal DNA ladders visible on agarose gel after staining with ethidium bromide are typical of apoptotic cell samples. To investigate whether the cytotoxic effects of NAB and ANAB observed in AGS cells were due to the presence of apoptotic cell death, cells were treated with […] (0-25 μM) for 24 h and DNA fragmentation analyses were performed. […] FIG. 5.

AGS cells [2] = assay: Morphological changes by light microscopy; type: cell-based, human; settings: 10 μM, within 24 h, FIG. 5
Text: FIG. 5 provides light microscopic images showing the morphological changes of AGS cells, including the induction of apoptotic bodies from AGS cells, induced by NAB and ANAB.
as §1

With `C=C1C(=O)O[C@H]2/C=C(\C)CC/C=C(\C)C[C@H](OC(C)=O)[C@@H]12` [Compound 4, acetyl neobritannilactone B] as the compound, how does the “DNA fragmentation (DNA ladders)” value (AGS cells [1]) read?
The value was “significant DNA ladders were observed”.

And the morphological changes (AGS cells [2])?
The morphological changes was “significant morphological changes and chromosomal condensation”.
